We go through two molecules from US20240299595A1, “CANCER THERANOSTIC COMPOSITIONS COMPRISING BIGUANIDE COMPLEXES OF GROUP 7 TRANSITION METALS AND USES THEREOF” (BOARD OF REGENTS, THE UNIVERSITY OF TEXAS SYSTEM, priority 2021, published 2024).

Entries after “also recorded” stand apart in the source; their conditions may differ.

Experiment [1] deals with PDAC cells. Briefly: JC-10 mitochondrial membrane potential assay. Format: cell-based. Particulars: JC-10 microplate assay kit. How it is done:
The fluorescent intensities for J-aggregates (Ex/Em=540/590 nm) and monomeric forms (Ex/Em=490/525 nm) of JC-10 were measured with a microplate reader. Fluorescence intensity ratio measured at 525 nm/590 nm represents the change of mitochondrial membrane potential. Data are presented as mean±SD (n=4). *p<0.05; **p<0.01; ***p<0.001.
Both Re-Phen and phenformin altered the mitochondrial functions and metabolic state of PDAC cells. The fluorescent intensities for both monomeric forms (Ex/Em=490/525 nm) and J-aggregates (Ex/Em=540/590 nm) of JC-10 change upon mitochondrial membrane polarization. Thus, an increase in the ratio of fluorescence intensities measured at 525 nm (monomeric form) over 590 nm (aggregates) represents a decrease in mitochondrial membrane potential.

The subject of experiment [2] is PDAC cells. Briefly: DCFDA cellular ROS detection assay. Format: cell-based. Particulars: for level of reactive oxygen species (ROS): DCFDA assay, FIG. 9B. How it is done: Decreased fluorescence intensity measured at Ex/Em 485/535 nm indicated decreased level of ROS. Data are expressed as mean±SD (n=4). ***p<0.001 compared to vehicle (DMSO) control.
The production of intracellular reactive oxygen species (ROS) after treatments with Re-Phen and phenformin in PDAC cells was also measured (FIG. 16). DCFDA Cellular ROS Detection AssayKit (Abcam, Cambridge, MA) was used to measure Intracellular reactive oxygen species (ROS). Briefly, after seeded into 96-well plates at a cell density of 2.5×10^4 cells per well overnight, cell monolayers were washed and incubated for 45 min at 37° C. in the dark in the presence of 25 μM DCFDA diluted in serum-free adhesion medium without phenol red according to the manufacturer's instructions. Cells were then treated with compounds as indicated for 1 hour. End-point fluorescence was measured in a fluorescence microplate reader (Syneregy H1, Bio-Tek, Winooski, VT) at 485 nm excitation and 535 nm emission wavelengths.

The subject of the next experiment is Kras*. Briefly: MTT cytotoxicity, pancreatic cancer cell line Kras*. Format: cell-based, murine. Particulars: 72 h. As to the method:
To determine cytotoxicity of Re-Phen and Phenformin, different cell lines were exposed to different concentrations of the compounds and their viabilities were followed over time. Pancreatic cells were seeded in 96-well plates (5000 cells/well) overnight, and treated with Re-Phen (FIG. 13A) or phenformin (FIG. 13B) in concentrations ranging from 4.57×10−4 mM to 1.0 mM at 37° C. for 72 h. Cell viability was measured using the MTT assay. The absorption at 590 nm was measured with a microplate reader (SpectraMax, Molecular Device, San Diego, CA) to quantify cell numbers. The proportion of cells was normalized to that of untreated cells and expressed as mean±standard error of the mean (SEM) (n=6). The half-maximal inhibitory concentration (IC50) values were calculated by a sigmoidal dose-response (variable slope) curve-fitting using GraphPad Prism software.

The test system of the next experiment is HeyA8. As to the kind of experiment: MTT cytotoxicity, ovarian cancer cell line HeyA8. Type of experiment: cell-based. As to the method: (§1) Finally, a comparison study of the cytotoxicity of Re-Phen and phenformin in a panel of ovarian cancer cell lines by MTT assay after a 72 hour incubation period was conducted. Ovarian cells were seeded at 5000 cells/well in 96-well plates overnight, and treated with Re-Phen or phenformin in different concentrations (from 4.57×10^−4 mM to 1.0 mM in 3-fold increase) at 37° C. for 72 hours. Cell viability was measured using the MTT assay. The absorption at 590 nm was measured at microplate reader (SpectraMax, Molecular Device, San Diego, CA) to quantify cell numbers. The proportion of cells was normalized to that of untreated cells and expressed as mean±standard error of the mean (SEM) (n=5-6). The resulting reduced viability with half-maximal inhibitory concentration (IC50) values of mM were calculated by a sigmoidal dose-response (variable slope) curve-fitting using GraphPad Prism software. The data are shown in FIG. 19A (Re-Phen) and FIG. 19B (phenformin). […] In fact, Re-Phen is shown to display >2,000-fold and >5,000-fold higher cytotoxicity against OVACAR-8 and SKOV3 (Table 2) human ovarian cancer cell lines, respectively.

For the next experiment, the system named is IRGOV-1. Briefly: MTT cytotoxicity, ovarian cancer cell line IRGOV-1. Type of experiment: cell-based. Particulars: 72 hours. As to the method: as §1
The next experiment concerns AMPK. As to the kind of experiment: AMPK and AMPK phosphoprotein western blotting. Particulars: 24 hours. Type of experiment: cell-based. As to the method:
R-actin was used as a loading control. Cells were treated with phenformin or Re-Phenformin overnight at the indicated concentrations for 24 hours.
AMPK is a key enzyme that becomes activated under nutrient stress. Annexin V/PI double staining kit was used to detected cell death in flow cytofluorimetric analyses. […] In Kras* cell line, cells died largely of necrosis; in MiaPaca-2 cell line, cells died mostly of apoptosis.
In general terms: In western blotting, separated proteins are transferred to a membrane and probed.

The test system of another experiment is OVCAR4. Briefly: MTT cytotoxicity, ovarian cancer cell line OVCAR4. Format: cell-based. How it is done: as §1
Experiment [3] has as its system MiaPaca-2 and Kras* cells. As to the kind of experiment: NADH-to-total NAD (NADt) ratio, colorimetric kit. Type of experiment: cell-based. Particulars: 100 μM, 3 hours or 12 hours. As to the method: Data are presented as mean±SD (n=3). *p<0.05; ***p<0.001. Vehicle (DMSO) treated cells were as controls.
Following, PDAC cells were used to measure NADH-to-total NAD (NADt) ratios. NADH-to-total NAD (NADt) ratios were measured using a colorimetric kit (Biovision, Milpitas, CA). Briefly, cells were treated for different time periods as indicated and total NAD (NADt, NAD+NADH) was extracted following manufacturer provided protocol. For each of the extracted samples, half of the sample was heated at 60° C. for 30 minutes to decompose NAD+ while keeping NADH intact. Total NAD+ and NADH level was measured without the heating steps and in the presence of NAD cycling enzyme. The ratio of NADH to NADt were calculated on absorbance measured at 450 nm with a microplate reader (SpectraMax, Molecular Device, San Diego, CA). Cells treated with the same amount of DMSO used to prepare 100 μM phenformin or Re-Phen were used as controls.

Another experiment relates to MiaPaca-2 cells. As to the kind of experiment: Untargeted IC-MS metabolomics. Type of experiment: cell-based. As to the method: Samples were measured by untargeted IC-MS after 12 hours of treatment (n=3).
Metabolites were extracted from lysed cells and samples were measured by untargeted IC-MS (n=3). Data are expressed as mean±SD (n=3). *p<0.05 compared to phenformin.
Following, untargeted IC-MS was used to analyze changes in cellular metabolites.

By IC50 is commonly meant the concentration that gives 50% inhibition. For the molecule `[H]/N=C(/N)N/C(=N/[H])NCCc1ccccc1` [Phenformin, N-phenylethyl biguanide, reference compound], in the experiment on PDAC cells [1], the mitochondrial membrane potential entry was “reduced mitochondrial membrane potential”. Further, the “level of reactive oxygen species (ROS)” value in the experiment on PDAC cells [2] is “increased the level of ROS”. Also, the IC50 in the experiment on Kras* (Mus musculus, Pancreatic cancer cell) is 750 µM; in the experiment with HeyA8 (HEY A8, 72 hours), 22 µM; with IRGOV-1, 380 µM; in the experiment with OVCAR4 (Homo sapiens, OVCAR-4, 72 hours) it was 2430 µM. The AMPK activation result in the experiment on AMPK is “activated AMPK”. Also, in experiment [3], the “ratio of NADH to total NADt” value is recorded as “increased the ratio of NADH to total NADt; also recorded: significantly increased NADH/NADt ratio”. The pyrimidine nucleotide pool entry with MiaPaca-2 cells is on record as “decreased pyrimidine nucleotide pool”. The “TCA cycle: level of succinate and aspartate versus vehicle” value with MiaPaca-2 cells (12 h) was “reduced level of succinate and aspartate”.
On to `N=C(N)NC(=N)NCCc1ccccc1.[C-]#[O+].[C-]#[O+].[C-]#[O+].[Re+]` [Re-Phen], for which the mitochondrial membrane potential result in the experiment with PDAC cells [1] was “reduced mitochondrial membrane potential”. Besides, the “level of reactive oxygen species (ROS)” value with PDAC cells [2] is “reduced the level of reactive oxygen species (ROS)”. Moreover, the “ROS levels in MiaPaca-2 cells” value with PDAC cells [2] (MiaPaca-2 cells, DCFDA, treated 1 hour, FIG. 16) is on record as “reduced ROS levels”. Besides, the 50% inhibitory concentration (IC50) in the experiment on Kras* was 230 µM; in the experiment on HeyA8 (72 hours) it was 82 µM; with IRGOV-1 it was 420 µM; in the experiment on OVCAR4 (72 hours) it was 390 µM. Further, the AMPK activation entry in the experiment with AMPK is recorded as “activated AMPK”. Also, the “ratio of NADH to total NADt” value in [3] is listed as “increased the ratio of NADH to total NADt; also recorded: significantly increased NADH/NADt ratio”. The “purine nucleotide pool compared to phenformin” value in the experiment on MiaPaca-2 cells is on record as “increased purine nucleotide pool”. Moreover, the pyrimidine nucleotide pool result in the experiment with MiaPaca-2 cells is on record as “decreased pyrimidine nucleotide pool”. The “level of 3-phosphoglycerate (3-PG)” value in the experiment on MiaPaca-2 cells (100 μM, 12 h) was “increased the level of 3-phosphoglycerate (3-PG) more than phenformin did”. Further, the “level of phosphoenolpyruvate (PEP)” value in the experiment with MiaPaca-2 cells (100 μM, 12 h) is “suppressed the level of phosphoenolpyruvate (PEP)”. Also, the “level of glutathione (GSH)” value with MiaPaca-2 cells (200 μM, 12 hours) is given as “increased the level of glutathione (GSH)”. Moreover, the “TCA cycle: level of succinate and aspartate versus vehicle” value in the experiment with MiaPaca-2 cells (12 h) was “reduced level of succinate and aspartate”.
